Measurements reported in paper PMC12806164, “Epithelial Heparan Sulfate Promotes Staphylococcus aureus Corneal Infection by Inhibiting Cathelicidins” (Proteoglycan research, 2025).
Like-named read-outs stand apart in the source and are kept apart here.

Tests used:
SMAP-29 = test: Inhibition by glycosaminoglycans of S. aureus killing by SMAP-29; assay type: cell-based, sheep; conditions: 5 μg/mL glycosaminoglycan, 0.5 μM SMAP-29, ~500 cfu USA300, phosphate buffer pH 7.4, 2 h at 37°C, n = 6
Protocol: (§1) Samples were plated onto TSA plates, and viable bacteria (cfu) were counted the following day. Data are shown as % bacterial killing, where killing activity in the presence of cathelicidin only represents 100% (n = 6, *p < 0.05, ****p < 0.0001, one-way ANOVA, multiple comparisons).
(§2) (A) Schematics of HS/HP structure. […] (F) BaclightGreen-labeled S. aureus (~400 cfu) was incubated with 0.5 μM CRAMP without or with 5 μg/mL HP, NDS-HP, 2ODS-HP, 6ODS-HP, H, NS-H, or NS2OS-H for 30 min at room temperature. Bacteria were washed, incubated with 10 μg/mL propidium iodide for 15 min at 4°C, and live (green) and dead (red) bacteria were visualized by fluorescence microscopy.
(§3) Late log phase S. aureus USA300 was washed with phosphate buffer (8.2 mM Na2HPO4, 1.8 mM KH2PO4, pH 7.4) and approximately 500 cfu were incubated with cathelicidins with or without excess GAGs for 2 h at 37°C as indicated. Viable bacteria were enumerated by plating onto TSA plates and counting colonies the following day. Results are shown as % bacterial killing, where 100% killing represents data derived from the group of bacteria incubated with cathelicidins only.

CAP-18 = test: Inhibition by glycosaminoglycans of S. aureus killing by CAP-18; assay type: cell-based, rabbit; conditions: 5 μg/mL glycosaminoglycan, 0.5 μM CAP-18, ~500 cfu USA300, phosphate buffer pH 7.4, 2 h at 37°C, n = 6
Protocol: as §1, §2, §3

CRAMP [1] = test: Inhibition by glycosaminoglycans of S. aureus killing by CRAMP; assay type: cell-based, mouse; conditions: 0.5 μM CRAMP; for Inhibition of S. aureus killing by CRAMP: 5 μg/mL glycosaminoglycan, ~500 cfu USA300, phosphate buffer pH 7.4, 2 h at 37°C, n = 6
Protocol: as §1, §2, §3
(§4) Figure S1. A) CRAMP expression was measured in uninfected Wt corneas or Wt corneas isolated at 4 h post-S. aureus USA300 infection. Briefly, eyes were enucleated, corneas were dissected, and isolated corneas were incubated with 10 mg/ml dispase II overnight at 4°C to peel off the corneal epithelium. Total RNA was purified from the corneal epithelium, and 1 ng of total RNA was analyzed by qRT-PCR for CRAMP or β-actin expression (n = 3, **p < 0.01). […] Bacterial killing was measured by plating serial dilutions onto TSA plates and counting colonies the following day. Results are shown as % bacterial survival (n = 4). Figure S2. […] Bacterial killing (%) was enumerated by plating serial dilutions onto TSA plates and counting colonies the following day (n = 5). B) Effects of pre-incubating S. aureus with glycosaminoglycans on bacterial killing by cathelicidins were examined by incubating 500 cfu of USA300 without or with 5 μg/ml HS, HP, DS, or CS for 30 min at 37°C. Bacteria were washed three times with buffer, incubated with 0.5 μM CRAMP for 2 h at 37°C, and % bacterial killing was determined by plating serial dilutions of samples (n = 4). Figure S3. S. aureus USA300 stained with BaclightGreen was incubated with 0.5 μM CRAMP in the absence or presence of 5 μg/ml HP, NDS-HP, 2ODS-HP, 6ODS-HP, H, NS-H, or NS2OS-H for 30 min at room temperature. Bacteria were washed and incubated with 10 μg/ml propidium iodide for 15 min on ice. Images were captured with a fluorescence microscope (Zeiss Axiovert 40 CFL). Quantification of % dead bacteria (out of total bacteria in field) is shown at the bottom. Figure S4. Alexa 647-conjugated CRAMP (0.5 μM) was incubated with fixed S. aureus USA300 without or with 5 μg/ml of the indicated glycosaminoglycans and chemically-desulfated HP compounds for 1 h at room temperature. S. aureus-associated CRAMP fluorescence was analyzed by flow cytometry. Representative FACS density plots are shown where heparan compounds containing 2-O-sulfated motifs decreased Alexa CRAMP binding by over 79% compared to the control (No GAG), except for NDS-HP where the reduction was approximately 65%. Fig. S5. Relative mRNA levels of A) Ndst1 and B) Sdc1 in the corneal epithelium of Hs2st^fl/fl, Krt12Cre, and Hs2st^fl/fl/Krt12Cre mice (n = 3).

CRAMP [2] = test: Alexa 647-CRAMP binding to Affi-Gel HP beads, competition by HP compounds (flow cytometry); design: species or system mouse; conditions: 20 μg/mL competitor, 0.5 μM Alexa 647-conjugated CRAMP, 1 h at room temperature, n = 4
Protocol: FIGURE 4 | 2-O-sulfated heparan compounds directly bind to CRAMP with high affinity. Alexa 647-conjugated CRAMP (0.5 μM) was incubated with Affi-Gel HP beads without or with 20 μg/mL of HP, NDS-HP, 2ODS-HP, or 6ODS-HP for 1 h at room temperature. CRAMP fluorescence associated with Affi-Gel HP beads was analyzed by flow cytometry. Results are shown as (A) % CRAMP binding and (B) mean fluorescence intensity (MFI) of CRAMP binding (n = 4, ***p < 0.001, ****p < 0.0001). ITC analyses for CRAMP binding to HP were performed at 25°C using a MicroCal iTC 200 titration calorimetry. The fitted heat curves of titrating CRAMP binding to (C) HP and (D) 2ODS-HP are shown.
Affi-Gel HP beads were washed and resuspended in PBS. Affi-Gel HP beads (20 μL) were incubated with 0.5 μM Alexa 647-labeled CRAMP without or with 20 μg/mL HP, chemically desulfated HP, or chemoenzymatically sulfated H for 1 h at room temperature. Affi-Gel HP beads were washed with PBS, and the Alexa 647-labeled CRAMP bound to them was assessed by flow cytometry.

LL-37 = test: Inhibition by glycosaminoglycans of S. aureus killing by LL-37; assay type: cell-based, human; conditions: 5 μg/mL glycosaminoglycan, 1 μM LL-37, ~500 cfu USA300, phosphate buffer pH 7.4, 2 h at 37°C, n = 6
Protocol: as §1, §2, §3

[3] = ref 44 (LL-37), ref 39 (CAP-18), ref 42 (SMAP-29); cited from earlier work
From the text: Next, we examined the dose response to cathelicidins from different species, which can have relatively large differences in primary sequence.

S. aureus USA300 [4] = conditions: 500 cfu S. aureus USA300, 2 h at 37°C, cfu on TSA plates, n = 4
Protocol: Bacterial killing was measured by plating serial dilutions onto TSA plates and counting colonies the following day. Results are shown as % bacterial survival (n = 4). […] Bacterial killing (%) was enumerated by plating serial dilutions onto TSA plates and counting colonies the following day (n = 5). B) Effects of pre-incubating S. aureus with glycosaminoglycans on bacterial killing by cathelicidins were examined by incubating 500 cfu of USA300 without or with 5 μg/ml HS, HP, DS, or CS for 30 min at 37°C. Bacteria were washed three times with buffer, incubated with 0.5 μM CRAMP for 2 h at 37°C, and % bacterial killing was determined by plating serial dilutions of samples (n = 4). […] Images were captured with a fluorescence microscope (Zeiss Axiovert 40 CFL). Quantification of % dead bacteria (out of total bacteria in field) is shown at the bottom. […] S. aureus-associated CRAMP fluorescence was analyzed by flow cytometry.

CRAMP [5] = test: Alexa 647-CRAMP binding to fixed S. aureus, inhibition by glycosaminoglycans (flow cytometry); design: species or system mouse; conditions: 0.5 μM Alexa 647-conjugated CRAMP; for Reduction of proportion of CRAMP-bound bacteria (Alexa CRAMP binding, FACS density plots) compared to No GAG: 5 μg/ml glycosaminoglycan, fixed S. aureus USA300, 1 h at room temperature, representative plots; for Decrease of MFI of Alexa-labeled CRAMP binding to S. aureus compared to control: 5 μg/mL glycosaminoglycan, 2% paraformaldehyde-fixed S. aureus USA300, 1 h at room temperature, n = 3
Protocol: Alexa 647-conjugated CRAMP (0.5 μM) was incubated with 2% paraformaldehyde-fixed Staphylococcus aureus USA300 without or with 5 μg/mL HP, HS, CS, DS, NDS-HP, 6ODS-HP, or 2ODS-HP for 1 h at room temperature. S. aureus-associated CRAMP fluorescence was analyzed by flow cytometry. Results are shown as % Alexa CRAMP binding (n = 3, ****p < 0.0001).
Alexa 647 fluorophore was conjugated to CRAMP using the Lightning-Link Rapid FluoProbes647H labeling kit following the manufacturer’s instructions. S. aureus USA300 fixed in 2% paraformaldehyde for 20 min was resuspended in 20 μL of phosphate buffer and incubated with 0.5 μM of Alexa 647-labeled CRAMP for 30 min at room temperature without or with glycosaminoglycans. Unbound Alexa 647-labeled CRAMP was removed by washing with phosphate buffer, and Alexa 647-labeled CRAMP bound to bacteria was assessed by flow cytometry.
as §4

S. aureus USA300 [6] = test: Pre-incubation of S. aureus with glycosaminoglycans, washing, then killing by cathelicidin; assay type: cell-based, Staphylococcus aureus; conditions: 5 μg/ml glycosaminoglycan pre-incubated with 500 cfu USA300 30 min at 37°C, washed three times, then 0.5 μM CRAMP 2 h at 37°C, n = 4
Protocol: Figure S1. A) CRAMP expression was measured in uninfected Wt corneas or Wt corneas isolated at 4 h post-S. aureus USA300 infection. Briefly, eyes were enucleated, corneas were dissected, and isolated corneas were incubated with 10 mg/ml dispase II overnight at 4°C to peel off the corneal epithelium. Total RNA was purified from the corneal epithelium, and 1 ng of total RNA was analyzed by qRT-PCR for CRAMP or β-actin expression (n = 3, **p < 0.01). […] Bacterial killing was measured by plating serial dilutions onto TSA plates and counting colonies the following day. Results are shown as % bacterial survival (n = 4). Figure S2. […] Bacterial killing (%) was enumerated by plating serial dilutions onto TSA plates and counting colonies the following day (n = 5). B) Effects of pre-incubating S. aureus with glycosaminoglycans on bacterial killing by cathelicidins were examined by incubating 500 cfu of USA300 without or with 5 μg/ml HS, HP, DS, or CS for 30 min at 37°C. Bacteria were washed three times with buffer, incubated with 0.5 μM CRAMP for 2 h at 37°C, and % bacterial killing was determined by plating serial dilutions of samples (n = 4). Figure S3. […] Images were captured with a fluorescence microscope (Zeiss Axiovert 40 CFL). Quantification of % dead bacteria (out of total bacteria in field) is shown at the bottom. […] S. aureus-associated CRAMP fluorescence was analyzed by flow cytometry. […]

## 6-O-desulfated HP [6ODS-HP]
SMAP-29
  Inhibition of S. aureus killing by SMAP-29: did not alter the ability of HP to significantly inhibit
CAP-18
  Inhibition of S. aureus killing by CAP-18: did not alter the ability of HP to significantly inhibit
CRAMP [1]
  Inhibition of S. aureus killing by CRAMP: did not alter the ability of HP to significantly inhibit
CRAMP [2]
  Inhibition of CRAMP binding to HP beads: over 75%
LL-37
  Inhibition of S. aureus killing by LL-37: did not alter the ability of HP to significantly inhibit

## CC[C@H](C)[C@H](NC(=O)[C@H](CCCCN)NC(=O)[C@H](CCC(=O)O)NC(=O)[C@H](CCCCN)NC(=O)[C@H](CO)NC(=O)[C@H](CCCCN)NC(=O)[C@H](CCCNC(=N)N)NC(=O)[C@H](Cc1ccccc1)NC(=O)[C@H](Cc1ccccc1)NC(=O)[C@H](CC(=O)O)NC(=O)CNC(=O)[C@H](CC(C)C)NC(=O)[C@@H](N)CC(C)C)C(=O)NCC(=O)N[C@@H](CCCCN)C(=O)N[C@@H](CCC(=O)O)C(=O)N[C@@H](Cc1ccccc1)C(=O)N[C@@H](CCCCN)C(=O)N[C@@H](CCCNC(=N)N)C(=O)N[C@H](C(=O)N[C@H](C(=O)N[C@@H](CCC(N)=O)C(=O)N[C@@H](CCCNC(=N)N)C(=O)N[C@H](C(=O)N[C@@H](CCCCN)C(=O)N[C@@H](CC(=O)O)C(=O)N[C@@H](Cc1ccccc1)C(=O)N[C@@H](CC(C)C)C(=O)N[C@@H](CCCNC(=N)N)C(=O)N[C@@H](CC(N)=O)C(=O)N[C@@H](CC(C)C)C(=O)N[C@H](C(=O)N1CCC[C@H]1C(=O)N[C@@H](CCCNC(=N)N)C(=O)N[C@H](C(=O)N[C@@H](CCC(=O)O)C(=O)N[C@@H](CO)C(=O)O)[C@@H](C)O)C(C)C)[C@@H](C)CC)C(C)C)[C@@H](C)CC [LL-37]
[3]
  pI: 10.5
S. aureus USA300 [4]; 1 μM peptide
  S. aureus killed: Greater than 98%

## CAP-18
[3]
  pI: 11.9
S. aureus USA300 [4]; 0.5 μM peptide
  S. aureus killed: Greater than 98%

## N-desulfated HP [NDS-HP]
SMAP-29
  Inhibition of S. aureus killing by SMAP-29: did not alter the ability of HP to significantly inhibit
CAP-18
  Inhibition of S. aureus killing by CAP-18: did not alter the ability of HP to significantly inhibit
CRAMP [1]
  Inhibition of S. aureus killing by CRAMP: did not alter the ability of HP to significantly inhibit
CRAMP [2]
  Inhibition of CRAMP binding to HP beads: over 75%
CRAMP [5]
  Reduction of proportion of CRAMP-bound bacteria (Alexa CRAMP binding, FACS density plots) compared to No GAG: approximately 65%
LL-37
  Inhibition of S. aureus killing by LL-37: did not alter the ability of HP to significantly inhibit

## chondroitin sulfate A [CS]
SMAP-29
  Inhibition of S. aureus killing by SMAP-29: no significant effect
CAP-18
  Inhibition of S. aureus killing by CAP-18: no significant effect
CRAMP [1]
  Inhibition of S. aureus killing by CRAMP: no significant effect
CRAMP [5]
  Decrease of MFI of Alexa-labeled CRAMP binding to S. aureus compared to control: no effect
  Reduction of proportion of CRAMP-bound bacteria (Alexa CRAMP binding, FACS density plots) compared to No GAG: not
LL-37
  Inhibition of S. aureus killing by LL-37: no significant effect

## dermatan sulfate [DS]
SMAP-29
  Inhibition of S. aureus killing by SMAP-29: did not inhibit
CAP-18
  Inhibition of S. aureus killing by CAP-18: 21%
CRAMP [1]
  Inhibition of S. aureus killing by CRAMP: did not inhibit
CRAMP [5]
  Decrease of MFI of Alexa-labeled CRAMP binding to S. aureus compared to control: no effect
  Reduction of proportion of CRAMP-bound bacteria (Alexa CRAMP binding, FACS density plots) compared to No GAG: not
LL-37
  Inhibition of S. aureus killing by LL-37: 27%

## heparan sulfate [HS]
SMAP-29
  Inhibition of S. aureus killing by SMAP-29: over 70%
CAP-18
  Inhibition of S. aureus killing by CAP-18: over 70%
CRAMP [1]; 5 μg/mL (~0.5 μM) HS, 500 cfu USA300, 2 h at 37°C, n = 5
  Inhibition of bacterial killing by CRAMP, titration study: significantly inhibited
CRAMP [1]
  Inhibition of S. aureus killing by CRAMP: over 70%
S. aureus USA300 [6]
  Inhibition of bacterial killing by cathelicidins after pre-incubation with bacteria and washing away: did not inhibit
LL-37
  Inhibition of S. aureus killing by LL-37: over 70%

## heparosan
SMAP-29
  Inhibition of S. aureus killing by SMAP-29: minimal effect
CAP-18
  Inhibition of S. aureus killing by CAP-18: minimal effect
CRAMP [1]
  Inhibition of S. aureus killing by CRAMP: minimal effect
LL-37
  Inhibition of S. aureus killing by LL-37: minimal effect
